Laboratory results from BindingDB's records for patent US11168088 (2021).

Each compound was assayed against Cyclin-dependent kinase 6/G1/S-specific cyclin-D1 (Homo sapiens, UniProt Q00534).
Cyclin-dependent kinase 6/G1/S-specific cyclin-D1, sequence (P24385 whole entry): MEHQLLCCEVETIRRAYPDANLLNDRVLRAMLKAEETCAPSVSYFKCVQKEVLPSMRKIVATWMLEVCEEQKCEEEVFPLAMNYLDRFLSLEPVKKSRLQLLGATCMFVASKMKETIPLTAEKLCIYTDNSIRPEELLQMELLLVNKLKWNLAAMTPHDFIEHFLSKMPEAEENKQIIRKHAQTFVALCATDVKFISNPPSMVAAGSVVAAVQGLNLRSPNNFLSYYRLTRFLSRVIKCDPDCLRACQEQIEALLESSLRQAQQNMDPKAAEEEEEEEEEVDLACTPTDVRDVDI
Cyclin-dependent kinase 6/G1/S-specific cyclin-D1, sequence (Q00534 whole entry): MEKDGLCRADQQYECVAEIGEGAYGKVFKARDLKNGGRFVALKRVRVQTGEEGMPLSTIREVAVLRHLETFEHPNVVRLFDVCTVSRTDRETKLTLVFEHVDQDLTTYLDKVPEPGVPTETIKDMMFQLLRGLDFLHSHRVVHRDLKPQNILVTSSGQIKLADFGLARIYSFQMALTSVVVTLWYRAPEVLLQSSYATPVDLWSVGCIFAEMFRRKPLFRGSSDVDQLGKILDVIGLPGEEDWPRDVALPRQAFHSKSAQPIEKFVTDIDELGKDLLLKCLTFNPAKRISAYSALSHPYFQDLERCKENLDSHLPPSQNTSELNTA

`CC(C)c1nn(C)c2c1-c1nc(Nc3ccc(N4CCNCC4)cn3)ncc1C2` [US11168088, Compound P-16] gave an IC50 of 53 nM.

What follows are compounds tested against Cyclin-dependent kinase 2 (Homo sapiens, UniProt P24941).

Point of comparison: `CCN1CCN(Cc2ccc(Nc3ncc4c(n3)-c3c(nn(CC)c3C(C)C)CC4)nc2)CC1` [US11168088, Compound P-2], IC50 896 nM. Against it:
- Cc1c2c(nn1C)CCc1cnc(Nc3ccc(CN4CCN(C)CC4)cn3)nc1-2 [US11168088, Compound D1] — 39-fold lower, 23 nM
- CCN1CCN(c2ccc(Nc3ncc4c(n3)-c3c(cnn3C(C)C)CC4)nc2)CC1 [US11168088, Compound P-12] — 8.9-fold higher, 7980 nM
- CCc1nc2c(n1C(C)C)-c1nc(Nc3ccc(CN4CCN(CC)CC4)cn3)ncc1C2 [US11168088, Compound P-5] — 3.3-fold higher, 3000 nM
- CC(C)n1ncc2c1-c1nc(Nc3ccc(N4CCNCC4)cn3)ncc1CC2 [US11168088, Compound P-25] — 9.5-fold higher, 8520 nM
